Calls of active or inactive are those of the source.
Columns and labels:
[1] = target: T1, Histone-lysine N-methyltransferase NSD2 (Homo sapiens, UniProt O96028); format: biochemical
T1 sequence (O96028 whole entry): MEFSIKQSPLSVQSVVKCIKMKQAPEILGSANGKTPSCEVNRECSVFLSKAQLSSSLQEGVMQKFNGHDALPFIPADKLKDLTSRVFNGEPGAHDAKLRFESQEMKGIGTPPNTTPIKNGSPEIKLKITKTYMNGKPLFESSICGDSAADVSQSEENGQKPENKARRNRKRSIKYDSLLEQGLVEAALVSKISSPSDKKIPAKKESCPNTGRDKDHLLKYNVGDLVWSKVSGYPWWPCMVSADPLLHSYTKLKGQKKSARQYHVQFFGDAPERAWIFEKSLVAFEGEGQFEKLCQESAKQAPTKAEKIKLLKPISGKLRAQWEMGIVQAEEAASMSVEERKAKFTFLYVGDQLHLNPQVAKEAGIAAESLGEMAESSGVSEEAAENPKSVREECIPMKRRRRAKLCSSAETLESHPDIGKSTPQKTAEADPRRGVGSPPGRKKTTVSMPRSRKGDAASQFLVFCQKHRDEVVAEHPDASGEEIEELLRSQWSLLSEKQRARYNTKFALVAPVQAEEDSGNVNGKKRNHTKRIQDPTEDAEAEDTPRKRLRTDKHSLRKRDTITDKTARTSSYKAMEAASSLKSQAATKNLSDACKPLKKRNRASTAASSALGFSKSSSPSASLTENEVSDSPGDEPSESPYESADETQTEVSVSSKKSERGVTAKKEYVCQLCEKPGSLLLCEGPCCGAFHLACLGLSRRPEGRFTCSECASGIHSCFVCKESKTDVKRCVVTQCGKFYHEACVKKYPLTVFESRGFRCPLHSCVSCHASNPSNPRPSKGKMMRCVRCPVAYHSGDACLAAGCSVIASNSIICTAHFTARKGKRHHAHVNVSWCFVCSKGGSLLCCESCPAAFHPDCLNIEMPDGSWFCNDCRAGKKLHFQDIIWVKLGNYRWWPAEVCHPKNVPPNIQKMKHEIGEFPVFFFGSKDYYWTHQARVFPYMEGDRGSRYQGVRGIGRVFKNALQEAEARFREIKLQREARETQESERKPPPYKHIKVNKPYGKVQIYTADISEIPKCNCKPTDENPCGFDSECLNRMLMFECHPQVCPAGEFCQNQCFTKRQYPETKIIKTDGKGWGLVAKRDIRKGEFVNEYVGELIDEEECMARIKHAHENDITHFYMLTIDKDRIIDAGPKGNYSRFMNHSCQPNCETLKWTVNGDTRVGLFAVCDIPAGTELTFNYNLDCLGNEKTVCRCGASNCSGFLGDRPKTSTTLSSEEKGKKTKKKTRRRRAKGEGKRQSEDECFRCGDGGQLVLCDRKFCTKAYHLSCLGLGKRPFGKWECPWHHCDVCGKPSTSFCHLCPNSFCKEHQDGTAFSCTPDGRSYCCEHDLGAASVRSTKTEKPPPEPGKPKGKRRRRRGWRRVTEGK

[2] = target: T2, Heat shock factor protein 1 (Mus musculus, UniProt P38532); assay: HSF1 potentiators in luciferase reporter cells, confirmation, cell-based, NIH3T3, luminescence, dose retest (AID 435004); format: functional;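 also: stress induced by proteasome inhibitor MG132 added 30 min after compound; luciferase reporter driven by HSF1 response element in NIH3T3 cells; actives raise luminescence as potentiators of the MG132 stress response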
T2 sequence (P38532 whole entry): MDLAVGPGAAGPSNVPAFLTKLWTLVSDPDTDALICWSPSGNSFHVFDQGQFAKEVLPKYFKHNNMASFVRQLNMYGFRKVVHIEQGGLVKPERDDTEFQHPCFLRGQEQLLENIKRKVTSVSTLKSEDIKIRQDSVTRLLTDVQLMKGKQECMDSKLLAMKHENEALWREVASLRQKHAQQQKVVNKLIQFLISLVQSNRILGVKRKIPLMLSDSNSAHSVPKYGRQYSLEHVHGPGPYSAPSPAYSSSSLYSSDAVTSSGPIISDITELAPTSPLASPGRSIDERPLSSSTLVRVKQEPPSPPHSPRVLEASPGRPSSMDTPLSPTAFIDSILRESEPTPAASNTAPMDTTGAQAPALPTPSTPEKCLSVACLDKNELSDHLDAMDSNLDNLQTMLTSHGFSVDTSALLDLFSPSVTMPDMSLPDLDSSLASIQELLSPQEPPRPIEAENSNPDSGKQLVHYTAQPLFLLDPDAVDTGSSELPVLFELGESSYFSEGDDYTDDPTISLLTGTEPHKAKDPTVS

[3] = target: T3, Rac GTPase-activating protein 1 (Homo sapiens, UniProt Q9H0H5); assay: MgcRacGAP GTPase-activating activity inhibitors, confirmation, biochemical, ADP Hunter fluorescence, primary and confirmatory (AID 624330); format: functional
T3 sequence (Q9H0H5 whole entry): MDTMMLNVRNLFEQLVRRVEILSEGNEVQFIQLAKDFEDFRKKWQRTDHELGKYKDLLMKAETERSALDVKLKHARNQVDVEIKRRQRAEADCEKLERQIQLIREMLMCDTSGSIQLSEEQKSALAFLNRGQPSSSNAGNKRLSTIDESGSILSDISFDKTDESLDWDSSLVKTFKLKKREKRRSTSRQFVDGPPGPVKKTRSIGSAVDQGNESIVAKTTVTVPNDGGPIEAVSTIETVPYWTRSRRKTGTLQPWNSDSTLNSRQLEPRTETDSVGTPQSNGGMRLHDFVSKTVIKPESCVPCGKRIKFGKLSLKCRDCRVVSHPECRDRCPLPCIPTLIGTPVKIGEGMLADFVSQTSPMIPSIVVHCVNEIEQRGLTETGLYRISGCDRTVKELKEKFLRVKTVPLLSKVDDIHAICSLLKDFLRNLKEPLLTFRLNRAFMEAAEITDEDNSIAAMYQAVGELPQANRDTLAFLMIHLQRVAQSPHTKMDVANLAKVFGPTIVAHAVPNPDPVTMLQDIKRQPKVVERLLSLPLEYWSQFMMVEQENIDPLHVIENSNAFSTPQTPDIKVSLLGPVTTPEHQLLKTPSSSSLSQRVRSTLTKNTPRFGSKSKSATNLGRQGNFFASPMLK

[4] = P. falciparum Dd2 growth inhibitors, dose response, SYBR Green, dry powder samples (AID 1159566); format: functional, cell-based;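 also: potency for growth inhibition with lower SYBR green DNA signal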
[5] = P. falciparum 3D7-ScDHODH growth inhibitors, dose response, SYBR Green, dry powder samples (AID 1159570); format: functional, cell-based;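 also: parasite growth measured after 72 hours of compound exposure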
[6] = P. falciparum ATP4 D1247Y mutant growth inhibitors, dose response, NITD609-resistant line, SYBR Green, dry powder (AID 1159571); format: functional, cell-based;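 also: parasites synchronized at ring stage by sorbitol before testing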
[7] = P. falciparum Dd2 growth inhibitors, dose response, SYBR Green, cherry-picked samples (AID 1159567); format: functional, cell-based
[8] = target: T4, Zinc finger protein mex-5 (Caenorhabditis elegans, UniProt Q9XUB2); assay: MEX-5/TCR-2 RNA interaction inhibitors, dose response, biochemical, C. elegans, fluorescence polarization (AID 1960)
T4 sequence (Q9XUB2 whole entry): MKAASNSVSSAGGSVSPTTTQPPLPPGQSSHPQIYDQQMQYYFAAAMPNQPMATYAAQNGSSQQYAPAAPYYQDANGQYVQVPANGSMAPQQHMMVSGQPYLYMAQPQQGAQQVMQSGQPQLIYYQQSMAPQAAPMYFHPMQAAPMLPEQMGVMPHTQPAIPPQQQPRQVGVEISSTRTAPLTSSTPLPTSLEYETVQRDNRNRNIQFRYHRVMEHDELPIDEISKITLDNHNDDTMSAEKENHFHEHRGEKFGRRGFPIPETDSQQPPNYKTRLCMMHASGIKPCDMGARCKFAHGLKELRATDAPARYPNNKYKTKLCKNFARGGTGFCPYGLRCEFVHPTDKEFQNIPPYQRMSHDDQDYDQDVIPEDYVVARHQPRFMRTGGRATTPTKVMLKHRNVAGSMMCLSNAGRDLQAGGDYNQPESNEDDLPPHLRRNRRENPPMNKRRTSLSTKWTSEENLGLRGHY

[9] = target: T5, RNA-binding protein pos-1 (Caenorhabditis elegans, UniProt G5EF15); assay: inhibitors of POS-1/mex-3 RNA binding, dose response, biochemical, fluorescence polarization (AID 1964);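 also: purified POS-1 fused to maltose binding protein made in E. coli; potency of compounds blocking POS-1 binding to fluorescent RNA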
T5 sequence (G5EF15 whole entry): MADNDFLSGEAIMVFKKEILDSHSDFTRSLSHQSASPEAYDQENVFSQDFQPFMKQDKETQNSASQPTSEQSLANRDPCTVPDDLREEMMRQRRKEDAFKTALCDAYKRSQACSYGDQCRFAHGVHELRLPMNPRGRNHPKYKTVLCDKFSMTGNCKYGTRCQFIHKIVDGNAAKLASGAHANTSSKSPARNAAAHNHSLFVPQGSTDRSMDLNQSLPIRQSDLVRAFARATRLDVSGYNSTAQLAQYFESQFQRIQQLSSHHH

[10] = target: T6, Polyadenylate-binding protein 1 (Homo sapiens, UniProt P11940); assay: PABP1 MLLE–PAM2 interaction inhibitors, dose response, miRNA deadenylation inhibitor project, biochemical, fluorescence polarization, Cy5-PAM2 peptide, secondary (AID 602260); format: functional; conditions: read-out: IC50_Mean
[11] = target: T6, Polyadenylate-binding protein 1; assay: PABP1 MLLE–PAM2 binding inhibitor potency, dose response, biochemical, fluorescence polarization, FITC-PAM2 peptide (AID 602259); format: functional; conditions: read-out: IC50_Mean
[12] = inhibitors of SNCA 5'UTR-driven reporter translation, confirmation, H4 neuroglioma cells, luminescence (AID 1988); format: functional, cell-based
[13] = Luminescence Cell-Based Dose Response HTS to Identify Inhibitors of 5'UTR Stem-Loop Driven Prion Protein mRNA Translation in H4 Neuroglioblastoma Cells. [Related pubchem assays: 1827 (Project Summary), 1813 (Primary HTS)]; format: functional
HEK293 = assay: inhibitors of LMP1-driven NF-kB reporter, dose response, cell-based, HEK293, luciferase, cherry-pick (AID 588343); format: functional; conditions: Homo sapiens
[14] = LGR2 antagonists, dose response, cell-based, HEK293, CRE-luciferase reporter, cherry pick, set 2 (AID 743343); format: functional;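 also: transfected cells were stimulated with diluted bursicon conditioned medium after compound addition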
[15] = target: T2, Heat shock factor protein 1; assay: inhibition of MG132-induced HSE-luciferase signal, confirmation, cell-based, NIH3T3, luminescence, dose retest (AID 2382); format: functional;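 also: NIH3T3 fibroblasts with HSF1-driven luciferase reporter stressed by proteasome inhibitor MG132; luminescence from HSF1-driven luciferase expression after 8 hours of MG132 stress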
[16] = target: T7, Ubiquitin-conjugating enzyme E2 N (Homo sapiens, UniProt P61088); format: functional;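 also: Dose-response confirmation in a TR-FRET assay detecting UBC13-driven polyubiquitin chain formation, inhibition measured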
T7 sequence (P61088 whole entry): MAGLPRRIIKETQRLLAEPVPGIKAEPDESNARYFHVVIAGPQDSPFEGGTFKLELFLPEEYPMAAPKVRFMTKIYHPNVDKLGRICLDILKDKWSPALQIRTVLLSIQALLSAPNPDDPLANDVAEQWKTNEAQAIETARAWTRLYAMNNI

T6 sequence (P11940 whole entry): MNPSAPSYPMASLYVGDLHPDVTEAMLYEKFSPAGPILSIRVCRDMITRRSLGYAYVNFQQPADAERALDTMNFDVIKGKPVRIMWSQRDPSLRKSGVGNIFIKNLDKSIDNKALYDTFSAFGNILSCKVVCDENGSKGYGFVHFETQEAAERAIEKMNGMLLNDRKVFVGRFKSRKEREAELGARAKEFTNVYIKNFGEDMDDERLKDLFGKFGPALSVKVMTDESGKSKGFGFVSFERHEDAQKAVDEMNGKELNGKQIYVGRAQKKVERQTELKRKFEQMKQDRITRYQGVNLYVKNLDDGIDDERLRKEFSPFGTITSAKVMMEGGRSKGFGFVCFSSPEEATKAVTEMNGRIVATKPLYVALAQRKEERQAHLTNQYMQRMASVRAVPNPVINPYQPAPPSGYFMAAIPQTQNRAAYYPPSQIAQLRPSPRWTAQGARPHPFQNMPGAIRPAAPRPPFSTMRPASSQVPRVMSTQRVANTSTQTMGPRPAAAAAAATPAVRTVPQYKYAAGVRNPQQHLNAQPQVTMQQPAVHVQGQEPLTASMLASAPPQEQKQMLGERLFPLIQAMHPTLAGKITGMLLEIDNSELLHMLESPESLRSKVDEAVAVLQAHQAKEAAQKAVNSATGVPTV

## CCN(CC)CCCn1c(=S)[nH]c2ncccc2c1=O
[1]
  AC50: 9.8 µM (active)
[2]
  EC50: > 260 µM (inactive)

## CN(c1ccc(O)cc1)c1ccc([N+](=O)[O-])c2nonc12
[1]
  AC50: > 20 µM (inactive)
[3]
  IC50: 135 µM (active)

## COc1ccc2c3c([nH]c2c1)[C@H](CO)N(Cc1cccc(F)c1)CC31CCN(Cc2ccccn2)CC1
[4]
  AC50: 0.906 µM (active)
[5]
  AC50: 0.902 µM (active)
[6]
  AC50: 0.922 µM (active)
[7]
  AC50: 1.07 µM (active)

## COc1ccccc1S(=O)(=O)N(C)C[C@H]1Oc2cc(/C=C/c3ccccc3)ccc2S(=O)(=O)N([C@H](C)CO)C[C@@H]1C
[4]
  AC50: 1.9 µM (active)
[5]
  AC50: 2.34 µM (active)
[6]
  AC50: 1.78 µM (active)
[7]
  AC50: 2.43 µM (active)

## Cc1ccc(/C=N/Nc2[nH]cnc3ncnc2-3)cc1
[8]
  EC50: > 300 µM (inconclusive)
[9]
  EC50: > 300 µM (not active)

## COc1ccc(OC)c(C2Nc3c(Cl)ccc(C(=O)O)c3C3C=CCC32)c1 (centres undefined)
[8]
  EC50: 40.7 µM (active)
[9]
  EC50: > 300 µM (not active)

## CC1CCCN(c2nc3ccccc3nc2C(C#N)S(=O)(=O)c2cccs2)C1 (centres undefined)
[8]
  EC50: 11.2 µM (inconclusive)
[10]
  IC50: > 66 µM (inactive)
[9]
  EC50: 7.02 µM (inconclusive)
[11]
  IC50: > 66 µM (inactive)

## CC(C)SC1=NSC2=NC(=O)/C(=C\c3c[nH]c4ccccc34)C(=N)N21
[8]
  EC50: > 300 µM (not active)
[9]
  EC50: 18.6 µM (active)

## Cc1nc(C)c(C(=O)Nc2ncc([N+](=O)[O-])s2)o1
[1]
  AC50: > 20 µM (inactive)
[12]
  EC50: 8.92 µM (inconclusive)
[13]
  EC50: 10.2 µM (inconclusive)
HEK293
  AC50: 3.12 µM (active)

## COc1ccc(NC(=O)Nc2ccc(OCc3ccccc3)cc2)cn1
[8]
  EC50: 17.9 µM (active)
[10]
  IC50: > 66 µM (inactive)
[9]
  EC50: 29.2 µM (active)
[11]
  IC50: 20 µM (active)

## O=C(CC1CS(=O)(=O)CC1CC(=O)Nc1ccc2c(c1)OCCO2)Nc1ccc2c(c1)OCCO2 (centres undefined)
[14]
  AC50: 45.8 µM (active)

## Cc1cc(C)nc(NS(=O)(=O)c2ccc(-n3cccc3)cc2)n1
[1]
  AC50: > 20 µM (inactive)
[15]
  EC50: > 195 µM (not active)

## NCCCC[C@@H]1NC(=O)c2cc([N+](=O)[O-])cc(F)c2NCCCC[C@@H](C(N)=O)NC(=O)CNC1=O
[16]
  IC50: > 20 µM (inactive)

## CC(C)Cn1cc(C(=O)NCCCN2CCC(C)CC2)c2c3ccccc3n(C)c2c1=O
[16]
  IC50: > 20 µM (inactive)

## O=C(C1CCCC1)N1CC2(C1)[C@@H](c1ccccc1)[C@H](CO)N2Cc1ccc(Cl)cc1
[4]
  AC50: 1.98 µM (active)
[5]
  AC50: 3.13 µM (active)
[6]
  AC50: 3.62 µM (active)
[7]
  AC50: 1.49 µM (active)
